In patent publication EP4810052A2, “HCRHR2 SELECTIVE POLYPEPTIDES” (Gubra A/S, priority 2023, dated 2026):
Starred links: 1 amine or outer side, 2 acyl side, 3 side chain; linkers in the order of their positions; H or OH if unused. Residues, ends and D or L forms follow the SMILES beside them. Groups on a side chain read outwards from the residue. *: point of attachment. C20 diacid = O=C(O)CCCCCCCCCCCCCCCCCCC(=O)*; γGlu = O=C(O)[C@H](CCC(=O)[*:2])N[*:1]; AEEA = NCCOCCOCC(=O)O

Legend:
[1] = Telemetry in mice (blood pressure, heart frequency); type: in vivo
Description: Blood pressure and heart frequency were monitored in freely moving conscious mice by radiotelemetry (PA-C10, Data Sciences). Briefly, analgesia with metamizole (100 mg / kg sc) was performed. For implantation of the telemetry transmitter, the animals were anesthetized with isoflurane with 5% induction and 2% maintenance. The neck was opened in the area of the hyoid bone up to the sternum in the median line. A subcutaneous pocket for the transmitter housing was prepared. The dextra carotid artery was then bluntly exposed and clamped. The […] was pushed caudally into the carotid artery through an incision. The catheter was fixed with a monofilament prolene thread, which also closed the incision. The vessel was also ligated cranially, and the clamp was then removed. The transmitter housing was pushed subcutaneously into a prepared skin pocket on the side opposite the catheter. Finally, the skin wound was closed. Postoperatively, an antibiotic (Ursocyclin® 10, Serumwerk Bernburg AG, Germany; 400 mg/l drinking water for 10 days) and an analgesic (Rimadyl®, 4 mg/kg sc for 3 days) were administered postoperatively.
For arterial blood pressure measurements, the animals were kept in a 12h: 12h day night cycle in a suitable room for at least one day before the first measurement. Animals were administrated s.c once daily in the morning for 7 consecutive days with either 1) Placebo, 2) SEQ ID NO: 3, 10 nmol/kg, 3) SEQ ID NO: 3, 30 nmol/kg or 4) SEQ ID NO: 3, 100 nmol/kg in a cross over design with 2 animals per group (n = 6-8) per week and with 1 week washout between treatments. The telemetric measurement took place over 24 hours.
For statistical analysis, 5 hours means were calculated starting from one hour after dosing and one hour after lights off. All data were evaluated using a 2-way ANOVA with Dunnett's test.

[2] = Telemetry in conscious healthy pigs; type: in vivo; conditions: study A
Description: PK/PD/safety properties of SEQ ID NO: 3 were evaluated in freely moving conscious healthy pigs by […].
In study part A, the effects of an ascending dose regime of SEQ ID NO: 3, (0.03, 0.1, 0.3 and 1.0 mg/kg) was compared to placebo. Primary endpoints were blood pressure, heart rate and ECG measurements.
In study part B, the effect of repeated dosing (once weekly, for 4 weeks) with a single dose of SEQ ID NO: 3 (0.3 mg/kg) was compared to placebo. Primary endpoints were blood pressure, heart rate and ECG measurements.

[3] = conscious healthy mice, s.c. once daily 7 days, 10-100 nmol/kg
[4] = mice, 10 nmol/kg, 1. dark period
[5] = mice, 10 nmol/kg, 2. dark period
[6] = mice, 10 nmol/kg, 3. dark period
[7] = mice, 10 nmol/kg, 4. dark period
[8] = mice, 10 nmol/kg, 5. dark period
[9] = mice, 10 nmol/kg, 6. dark period
[10] = mice, 10 nmol/kg, Baseline dark period
[11] = mice, 30 nmol/kg, 1. dark period
[12] = mice, 30 nmol/kg, 2. dark period
[13] = mice, 30 nmol/kg, 3. dark period
[14] = mice, 30 nmol/kg, 4. dark period
[15] = mice, 30 nmol/kg, 5. dark period
[16] = mice, 30 nmol/kg, 6. dark period
[17] = mice, 30 nmol/kg, Baseline dark period
[18] = mice, 100 nmol/kg, 1. dark period
[19] = mice, 100 nmol/kg, 2. dark period
[20] = mice, 100 nmol/kg, 3. dark period
[21] = mice, 100 nmol/kg, 4. dark period
[22] = mice, 100 nmol/kg, 5. dark period
[23] = mice, 100 nmol/kg, 6. dark period
[24] = mice, 100 nmol/kg, Baseline dark period

With `CC[C@H](C)[C@H](N)C(=O)N[C@H](C(=O)N[C@@H](CC(C)C)C(=O)N[C@@H](CO)C(=O)N[C@@H](CC(C)C)C(=O)N[C@@H](CC(=O)O)C(=O)N[C@H](C(=O)N1CCC[C@H]1C(=O)N[C@H](C(=O)NCC(=O)N[C@@H](CC(C)C)C(=O)N[C@@H](CC(C)C)C(=O)N[C@@H](CCC(N)=O)C(=O)N[C@H](C(=O)N[C@@H](CC(C)C)C(=O)N[C@@H](CC(C)C)C(=O)N[C@@H](CCC(=O)O)C(=O)N[C@@H](CCC(N)=O)C(=O)N[C@@H](C)C(=O)N[C@@H](CCCNC(=N)N)C(=O)N[C@@H](C)C(=O)N[C@@H](CCCNC(=N)N)C(=O)N[C@@H](C)C(=O)N[C@@H](C)C(=O)N[C@@H](CCCNC(=N)N)C(=O)N[C@@H](CCC(=O)O)C(=O)N[C@@H](CCC(N)=O)C(=O)N[C@@H](C)C(=O)N[C@@H](CCCCNC(=O)COCCOCCNC(=O)COCCOCCNC(=O)CC[C@H](NC(=O)CC[C@H](NC(=O)CCCCCCCCCCCCCCCCCCC(=O)O)C(=O)O)C(=O)O)C(=O)N[C@H](C(=O)N[C@@H](CC(N)=O)C(=O)N[C@@H](C)C(=O)N[C@@H](CCC(=O)O)C(=O)N[C@H](C(=O)N[C@@H](CC(C)C)C(=O)N[C@@H](C)C(=O)N[C@@H](CCC(=O)O)C(=O)N[C@H](C(N)=O)C(C)C)[C@@H](C)CC)[C@@H](C)O)[C@@H](C)CC)[C@@H](C)CC)C(C)C)C(C)C` [SEQ ID NO: 3] (H-IVLSLDVPIGLLQILLEQARARAAREQAK([AEEA-AEEA-γGlu-γGlu-C20 diacid])TNAEILAEV-NH2) the Heart rate [1, 3] was “permanent increase”, the “mean arterial blood pressure” value [1, 3] was “transient and dose-dependent effect” and the Heart rate [1, 4] was 617.82 ± 17.8 BPM. It also gave a Mean arterial pressure [1, 4] of 102.19 ± 4.0 mmHg, a Heart rate ([1]; mice, 10 nmol/kg, 1. dose) of 590.34 ± 26.4 BPM and a Mean arterial pressure ([1]; mice, 10 nmol/kg, 1. dose) of 97.23 ± 3.7 mmHg. It also gave a Heart rate [1, 5] of 576.21 ± 15.5 BPM, a Mean arterial pressure [1, 5] of 102.50 ± 2.9 mmHg and a Heart rate ([1]; mice, 10 nmol/kg, 2. dose) of 526.42 ± 18.4 BPM. The Mean arterial pressure ([1]; mice, 10 nmol/kg, 2. dose) was 89.86 ± 2.5 mmHg, the Heart rate [1, 6] was 570.38 ± 9.8 BPM and the Mean arterial pressure [1, 6] was 101.92 ± 1.5 mmHg. For the same compound, the Heart rate ([1]; mice, 10 nmol/kg, 3. dose) was 517.24 ± 12.1 BPM, the Mean arterial pressure ([1]; mice, 10 nmol/kg, 3. dose) was 89.07 ± 1.9 mmHg and the Heart rate [1, 7] was 557.65 ± 11.8 BPM. It also gave a Mean arterial pressure [1, 7] of 103.17 ± 1.7 mmHg, a Heart rate ([1]; mice, 10 nmol/kg, 4. dose) of 521.88 ± 17.1 BPM and a Mean arterial pressure ([1]; mice, 10 nmol/kg, 4. dose) of 96.25 ± 1.4 mmHg. It also gave a Heart rate [1, 8] of 548.23 ± 8.3 BPM, a Mean arterial pressure [1, 8] of 105.59 ± 1.5 mmHg and a Heart rate ([1]; mice, 10 nmol/kg, 5. dose) of 515.46 ± 3.8 BPM. The Mean arterial pressure ([1]; mice, 10 nmol/kg, 5. dose) was 93.27 ± 1.8 mmHg, the Heart rate [1, 9] was 571.18 ± 17.4 BPM and the Mean arterial pressure [1, 9] was 104.54 ± 1.8 mmHg. For the same compound, the Heart rate ([1]; mice, 10 nmol/kg, 6. dose) was 538.37 ± 13.6 BPM, the Mean arterial pressure ([1]; mice, 10 nmol/kg, 6. dose) was 99.01 ± 3.0 mmHg and the Heart rate [1, 10] was 573.24 ± 24.3 BPM. It also gave a Mean arterial pressure [1, 10] of 117.13 ± 6.7 mmHg, a Heart rate [1, 11] of 636.57 ± 28.2 BPM and a Mean arterial pressure [1, 11] of 97.14 ± 2.8 mmHg. For the same compound, the Heart rate ([1]; mice, 30 nmol/kg, 1. dose) was 637.60 ± 39.0 BPM, the Mean arterial pressure ([1]; mice, 30 nmol/kg, 1. dose) was 83.81 ± 3.9 mmHg and the Heart rate [1, 12] was 579.68 ± 23.9 BPM. It also gave a Mean arterial pressure [1, 12] of 102.00 ± 4.4 mmHg, a Heart rate ([1]; mice, 30 nmol/kg, 2. dose) of 534.13 ± 15.4 BPM and a Mean arterial pressure ([1]; mice, 30 nmol/kg, 2. dose) of 89.68 ± 5.3 mmHg. It also gave a Heart rate [1, 13] of 621.30 ± 9.5 BPM, a Mean arterial pressure [1, 13] of 106.02 ± 3.9 mmHg and a Heart rate ([1]; mice, 30 nmol/kg, 3. dose) of 524.21 ± 17.2 BPM. For the same compound, the Mean arterial pressure ([1]; mice, 30 nmol/kg, 3. dose) was 93.98 ± 4.5 mmHg, the Heart rate [1, 14] was 650.03 ± 9.0 BPM and the Mean arterial pressure [1, 14] was 106.67 ± 4.8 mmHg. For the same compound, the Heart rate ([1]; mice, 30 nmol/kg, 4. dose) was 576.95 ± 21.0 BPM, the Mean arterial pressure ([1]; mice, 30 nmol/kg, 4. dose) was 94.91 ± 5.0 mmHg and the Heart rate [1, 15] was 628.77 ± 14.9 BPM. It also gave a Mean arterial pressure [1, 15] of 107.74 ± 5.7 mmHg, a Heart rate ([1]; mice, 30 nmol/kg, 5. dose) of 552.59 ± 12.9 BPM and a Mean arterial pressure ([1]; mice, 30 nmol/kg, 5. dose) of 94.31 ± 5.2 mmHg. It also gave a Heart rate [1, 16] of 625.92 ± 11.6 BPM, a Mean arterial pressure [1, 16] of 109.48 ± 6.3 mmHg and a Heart rate ([1]; mice, 30 nmol/kg, 6. dose) of 558.58 ± 15.1 BPM. For the same compound, the Mean arterial pressure ([1]; mice, 30 nmol/kg, 6. dose) was 97.05 ± 6.6 mmHg, the Heart rate [1, 17] was 573.65 ± 26.2 BPM and the Mean arterial pressure [1, 17] was 111.32 ± 3.0 mmHg. For the same compound, the Heart rate [1, 18] was 593.28 ± 23.1 BPM, the Mean arterial pressure [1, 18] was 86.82 ± 2.2 mmHg and the Heart rate ([1]; mice, 100 nmol/kg, 1. dose) was 692.31 ± 7.0 BPM. The Mean arterial pressure ([1]; mice, 100 nmol/kg, 1. dose) was 83.22 ± 5.6 mmHg, the Heart rate [1, 19] was 517.97 ± 16.2 BPM and the Mean arterial pressure [1, 19] was 98.30 ± 4.8 mmHg. For the same compound, the Heart rate ([1]; mice, 100 nmol/kg, 2. dose) was 507.39 ± 8.1 BPM, the Mean arterial pressure ([1]; mice, 100 nmol/kg, 2. dose) was 89.63 ± 4.9 mmHg and the Heart rate [1, 20] was 591.77 ± 7.0 BPM. It also gave a Mean arterial pressure [1, 20] of 101.88 ± 5.1 mmHg, a Heart rate ([1]; mice, 100 nmol/kg, 3. dose) of 536.49 ± 10.4 BPM and a Mean arterial pressure ([1]; mice, 100 nmol/kg, 3. dose) of 92.77 ± 4.1 mmHg. The Heart rate [1, 21] was 606.21 ± 10.1 BPM, the Mean arterial pressure [1, 21] was 103.60 ± 5.3 mmHg and the Heart rate ([1]; mice, 100 nmol/kg, 4. dose) was 560.41 ± 16.0 BPM. The Mean arterial pressure ([1]; mice, 100 nmol/kg, 4. dose) was 94.17 ± 3.4 mmHg, the Heart rate [1, 22] was 619.17 ± 11.0 BPM and the Mean arterial pressure [1, 22] was 103.68 ± 4.4 mmHg. It also gave a Heart rate ([1]; mice, 100 nmol/kg, 5. dose) of 554.35 ± 15.3 BPM, a Mean arterial pressure ([1]; mice, 100 nmol/kg, 5. dose) of 91.26 ± 2.0 mmHg and a Heart rate [1, 23] of 612.05 ± 11.8 BPM. For the same compound, the Mean arterial pressure [1, 23] was 103.45 ± 3.1 mmHg, the Heart rate ([1]; mice, 100 nmol/kg, 6. dose) was 550.11 ± 16.2 BPM and the Mean arterial pressure ([1]; mice, 100 nmol/kg, 6. dose) was 88.76 ± 1.3 mmHg. For the same compound, the Heart rate [1, 24] was 581.49 ± 7.7 BPM, the Mean arterial pressure [1, 24] was 108.55 ± 1.2 mmHg and the Heart rate [2] was “remained unaffected”. For the same compound, the “mean arterial blood pressure” value [2] was “remained unaffected”, the “relaxation of the left ventricle” value [2] was “not affected” and the “systemic or cardiac hemodynamics (LV end diastolic pressure, time constant of relaxation, baroreceptor sensitivity, heart rate variability)” value [2] was “No relevant findings”. The PR-Interval ([2]; ECG) was “slight decrease”, the QT-Interval ([2]; ECG) was “unaffected” and the “inotropic effects (contractility)” value ([2]; ascending s.c. doses 0.03-1.0 mg/kg) was “long-lasting positive ionotropic effects”.
